# Assay results from US7981903B2, “2-[2-{phenylamino}-1H-pyrrolo[2,3-D]pyrimidin-4-yl)amino] benzamide derivatives as IGF-1R inhibitors for the treatment of cancer” (GlaxoSmithKline LLC, priority 2007, dated 2011).
# Assays:
# human IGF1R (hIGF1R) = target: T1, human IGF1R (hIGF1R) (Homo sapiens, UniProt P08069); experiment: TR-FRET kinase assay of purified hIGF1R; type: biochemical; settings: activated hIGF1R 0.5 nM, 10 μM ATP, values given as pIC50 category, read-out: IGF-1R pIC50 (converted)
# T1 construct: containing amino acid residues 957-1367 of human IGF1R; made in house; host or cells: Sf9 cells (baculovirus)
# T1 sequence (P08069 957-1367): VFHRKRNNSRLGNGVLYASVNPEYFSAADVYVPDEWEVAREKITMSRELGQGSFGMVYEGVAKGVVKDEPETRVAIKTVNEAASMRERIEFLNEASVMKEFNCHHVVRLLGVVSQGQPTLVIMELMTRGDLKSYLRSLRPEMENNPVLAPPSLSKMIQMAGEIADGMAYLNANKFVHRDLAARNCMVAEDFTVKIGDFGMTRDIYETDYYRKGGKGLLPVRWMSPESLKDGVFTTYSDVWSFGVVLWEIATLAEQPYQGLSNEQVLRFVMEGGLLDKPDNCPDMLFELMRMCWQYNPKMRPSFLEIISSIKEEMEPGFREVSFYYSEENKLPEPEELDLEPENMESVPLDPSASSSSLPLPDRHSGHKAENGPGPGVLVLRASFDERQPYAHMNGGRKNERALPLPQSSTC
# [1] = target: T2, NIH-3T3 cells overexpressing human IR (Homo sapiens, UniProt P06213); experiment: IR cellular autophosphorylation (DELFIA); type: cell-based; settings: 2 h compound, insulin 3 ug/ml for 15 minutes, IC50 category
# T2 construct: expressed in transfected cells; host or cells: NIH-3T3 (mouse fibroblasts)
# T2 sequence (P06213 28-1382): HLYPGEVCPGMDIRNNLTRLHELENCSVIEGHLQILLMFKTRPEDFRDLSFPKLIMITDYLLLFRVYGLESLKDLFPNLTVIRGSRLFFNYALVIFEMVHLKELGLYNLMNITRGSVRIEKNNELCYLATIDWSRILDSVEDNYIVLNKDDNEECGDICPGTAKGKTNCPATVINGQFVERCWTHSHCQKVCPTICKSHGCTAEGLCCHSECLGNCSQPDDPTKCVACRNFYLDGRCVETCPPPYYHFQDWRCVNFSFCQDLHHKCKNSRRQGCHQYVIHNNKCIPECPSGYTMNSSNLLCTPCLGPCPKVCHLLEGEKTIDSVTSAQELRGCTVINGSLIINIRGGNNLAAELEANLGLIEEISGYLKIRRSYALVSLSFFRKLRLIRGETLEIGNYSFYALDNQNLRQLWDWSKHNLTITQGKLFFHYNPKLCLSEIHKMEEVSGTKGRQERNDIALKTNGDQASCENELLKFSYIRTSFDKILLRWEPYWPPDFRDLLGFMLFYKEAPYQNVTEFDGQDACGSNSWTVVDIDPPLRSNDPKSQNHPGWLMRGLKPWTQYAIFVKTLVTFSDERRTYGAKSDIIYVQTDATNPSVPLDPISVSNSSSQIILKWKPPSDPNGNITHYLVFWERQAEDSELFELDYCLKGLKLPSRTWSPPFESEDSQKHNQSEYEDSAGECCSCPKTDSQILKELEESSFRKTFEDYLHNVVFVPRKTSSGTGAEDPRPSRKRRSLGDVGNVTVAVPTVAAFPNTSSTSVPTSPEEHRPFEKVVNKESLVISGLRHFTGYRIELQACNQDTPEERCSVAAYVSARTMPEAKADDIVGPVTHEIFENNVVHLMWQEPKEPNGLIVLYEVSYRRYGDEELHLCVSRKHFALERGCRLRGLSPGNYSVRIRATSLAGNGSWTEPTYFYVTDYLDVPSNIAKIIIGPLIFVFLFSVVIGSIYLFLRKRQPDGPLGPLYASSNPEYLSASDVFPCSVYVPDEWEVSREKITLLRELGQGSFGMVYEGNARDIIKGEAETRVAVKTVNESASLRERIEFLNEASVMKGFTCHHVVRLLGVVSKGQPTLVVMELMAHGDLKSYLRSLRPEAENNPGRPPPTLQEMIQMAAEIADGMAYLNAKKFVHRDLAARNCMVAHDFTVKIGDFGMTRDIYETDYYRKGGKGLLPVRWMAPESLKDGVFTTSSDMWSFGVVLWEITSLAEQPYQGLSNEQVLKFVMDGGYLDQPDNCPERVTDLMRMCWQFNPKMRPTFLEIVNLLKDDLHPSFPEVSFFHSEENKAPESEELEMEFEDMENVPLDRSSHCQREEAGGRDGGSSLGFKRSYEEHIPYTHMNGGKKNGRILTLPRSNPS
# Procedure, shortened: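 Receptor autophosphorylation measured by DELFIA, capturing IGF-1R or IRβ and detecting with europium anti-pTyr, reported as percent of IGF-1- or insulin-stimulated signal. Compounds (30 uM to 1.5 nM) added 2 h before ligand, then 15 min stimulation (IGF-1 30 ng/ml or insulin 3 ug/ml).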
# human IR (hIR) = target: T3, human IR (hIR) (Homo sapiens, UniProt P06213); experiment: TR-FRET kinase assay of purified hIR; type: biochemical; settings: activated hIR 0.5 nM, 10 μM ATP, values given as pIC50 category
# T3 construct: containing amino acid residues 979-1382 of human IR; made in house; host or cells: Sf9 cells (baculovirus), same process as hIGF1R
# T3 sequence (P06213 979-1382): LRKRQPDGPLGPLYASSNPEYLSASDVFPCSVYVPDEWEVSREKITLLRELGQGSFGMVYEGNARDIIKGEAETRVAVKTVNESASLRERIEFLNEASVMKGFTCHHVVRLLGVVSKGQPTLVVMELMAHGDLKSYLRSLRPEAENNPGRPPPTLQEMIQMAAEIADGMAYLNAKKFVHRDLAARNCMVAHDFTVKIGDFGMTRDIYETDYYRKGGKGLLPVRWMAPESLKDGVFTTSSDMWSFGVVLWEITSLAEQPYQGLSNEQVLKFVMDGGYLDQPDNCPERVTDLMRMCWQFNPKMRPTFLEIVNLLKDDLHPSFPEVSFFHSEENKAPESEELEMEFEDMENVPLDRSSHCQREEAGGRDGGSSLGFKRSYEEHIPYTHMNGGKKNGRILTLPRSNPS
IC50 (human IGF1R (hIGF1R)),IC50 [1],IC50 (human IR (hIR)),SMILES
0.251 to 1 nM,< 100 nM,0.251 to 1 nM,"COc1cc2c(cc1Nc1nc(Nc3cc(F)cc(F)c3C(N)=O)c3cc[nH]c3n1)N(C(=O)CN1CCCC1)CCC2 [Example 219, 2,4-difluoro-6-[(2-{[6-(methyloxy)-1-(1-pyrrolidinylacetyl)-1,2,3,4-tetrahydro-7-quinolinyl]amino}-1H-pyrrolo[2,3-d]pyrimidin-4-yl)amino]benzamide]"
0.251 to 1 nM,< 100 nM,0.251 to 1 nM,"CNC(=O)c1c(F)cc(F)cc1Nc1nc(Nc2cc3c(cc2OC)CCCN3C(=O)CN2CCCC2)nc2[nH]ccc12 [Example 221, 2,4-difluoro-N-methyl-6-[(2-{[6-(methyloxy)-1-(1-pyrrolidinylacetyl)-1,2,3,4-tetrahydro-7-quinolinyl]amino}-1H-pyrrolo[2,3-d]pyrimidin-4-yl)amino]benzamide]"
5.01 to 200 nM,> 500 nM,5.01 to 158 nM,"COc1cc2c(cc1Nc1nc(Nc3cccc(F)c3C(N)=O)c3cc[nH]c3n1)CN(C(=O)CCN1CCN(C(C)C)CC1)CC2 [Example 229, 2-fluoro-6-[(2-{[2-{3-[4-(1-methylethyl)-1-piperazinyl]propanoyl}-6-(methyloxy)-1,2,3,4-tetrahydro-7-isoquinolinyl]amino}-1H-pyrrolo[2,3-d]pyrimidin-4-yl)amino]benzamide]"
5.01 to 200 nM,100 to 500 nM,5.01 to 158 nM,"COc1cc2c(cc1Nc1nc(Nc3cccc(F)c3C(N)=O)c3cc[nH]c3n1)CN(C(=O)CCN(C)C)CC2 [Example 230, 2-[(2-{[2-(N,N-dimethyl-β-alanyl)-6-(methyloxy)-1,2,3,4-tetrahydro-7-isoquinolinyl]amino}-1H-pyrrolo[2,3-d]pyrimidin-4-yl)amino]-6-fluorobenzamide]"
5.01 to 200 nM,> 500 nM,5.01 to 158 nM,"COc1cc2c(cc1Nc1nc(Nc3cccc(F)c3C(N)=O)c3cc[nH]c3n1)CN(C(=O)CCN1CCOCC1)CC2 [Example 231, 2-fluoro-6-{[2-({6-(methyloxy)-2-[3-(4-morpholinyl)propanoyl]-1,2,3,4-tetrahydro-7-isoquinolinyl}amino)-1H-pyrrolo[2,3-d]pyrimidin-4-yl]amino}benzamide]"
5.01 to 200 nM,> 500 nM,1.26 to 3.98 nM,"COc1cc2c(cc1Nc1nc(Nc3cccc(F)c3C(N)=O)c3cc[nH]c3n1)CN(CCCN(C)C)CC2 [Example 232, 2-[(2-{[2-[3-(dimethylamino)propyl]-6-(methyloxy)-1,2,3,4-tetrahydro-7-isoquinolinyl]amino}-1H-pyrrolo[2,3-d]pyrimidin-4-yl)amino]-6-fluorobenzamide]"
5.01 to 200 nM,> 500 nM,1.26 to 3.98 nM,"CNC(=O)c1c(F)cccc1Nc1nc(Nc2cc3c(cc2OC)CCN(C(C)C)C3)nc2[nH]ccc12 [Example 235, 2-fluoro-N-methyl-6-[(2-{[2-(1-methylethyl)-6-(methyloxy)-1,2,3,4-tetrahydro-7-isoquinolinyl]amino}-1H-pyrrolo[2,3-d]pyrimidin-4-yl)amino]benzamide]"
5.01 to 200 nM,100 to 500 nM,1.26 to 3.98 nM,"CCC(C)N1CCc2cc(OC)c(Nc3nc(Nc4cccc(F)c4C(=O)NC)c4cc[nH]c4n3)cc2C1 (stereo not drawn) [Example 238, 2-fluoro-N-methyl-6-[(2-{[6-(methyloxy)-2-(1-methylpropyl)-1,2,3,4-tetrahydro-7-isoquinolinyl]amino}-1H-pyrrolo[2,3-d]pyrimidin-4-yl)amino]benzamide]"
5.01 to 200 nM,< 100 nM,5.01 to 158 nM,"CNC(=O)c1c(F)cccc1Nc1nc(Nc2cc(N(C)C(=O)CN(C)C)ccc2OC)nc2[nH]ccc12 [Example 242, 2-[(2-{[5-[(N,N-dimethylglycyl)(methyl)amino]-2-(methyloxy)phenyl]amino}-1H-pyrrolo[2,3-d]pyrimidin-4-yl)amino]-6-fluoro-N-methylbenzamide]"
0.251 to 1 nM,< 100 nM,0.251 to 1 nM,"COc1ccc(NC(=O)CN(C)C)cc1Nc1nc(Nc2cccc(F)c2C(N)=O)c2cc[nH]c2n1 [Example 244, 2-[(2-{[5-[(N,N-dimethylglycyl)amino]-2-(methyloxy)phenyl]amino}-1H-pyrrolo[2,3-d]pyrimidin-4-yl)amino]-6-fluorobenzamide]"
0.251 to 1 nM,100 to 500 nM,0.251 to 1 nM,"CNC(=O)c1c(F)cccc1Nc1nc(Nc2cc3c(cc2OC)CCN3C(=O)CN(C)C)nc2[nH]cc(C)c12 [Example 258, 2-[(2-{[1-(N,N-dimethylglycyl)-5-(methyloxy)-2,3-dihydro-1H-indol-6-yl]amino}-5-methyl-1H-pyrrolo[2,3-d]pyrimidin-4-yl)amino]-6-fluoro-N-methylbenzamide]"
5.01 to 200 nM,100 to 500 nM,5.01 to 158 nM,"COc1cc2c(cc1Nc1nc(Nc3cccc(F)c3C(N)=O)c3cc(C)[nH]c3n1)N(C(=O)CN(C)C)CC2 [Example 262, 2-[(2-{[1-(N,N-dimethylglycyl)-5-(methyloxy)-2,3-dihydro-1H-indol-6-yl]amino}-6-methyl-1H-pyrrolo[2,3-d]pyrimidin-4-yl)amino]-6-fluorobenzamide]"
